The numbers were not newly measured in article PMC11974678 (bioRxiv, 2025), which cites them from elsewhere.

This series concerns the target T1, FABP1 (Homo sapiens, UniProt P07148).
T1 sequence (P07148 with tags, fused parts or gaps): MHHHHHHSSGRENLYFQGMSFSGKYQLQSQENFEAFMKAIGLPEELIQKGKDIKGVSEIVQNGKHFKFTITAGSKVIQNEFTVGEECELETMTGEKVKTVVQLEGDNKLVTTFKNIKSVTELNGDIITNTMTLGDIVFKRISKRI
The settings on record: read-out: KD of binding to FABP1.

In general, Kd refers to the equilibrium constant for the complex coming apart. For `O=C(O)C(F)(F)C(F)(F)C(F)(F)C(F)(F)C(F)(F)C(F)(F)C(F)(F)F` [335-67-1, perfluorooctanoic acid], the Kd is 18.8 µM.
